Reference: PMC5515971, “Utility of spherical human liver microtissues for prediction of clinical drug-induced liver injury” (Archives of Toxicology, 2017)
pIC50: −log10 of the molar value. “Also recorded” adds a separate entry of the source. Where two headings read alike, the source gives them in different places.

Columns and labels:
[1] = system: primary human hepatocytes (PHH); experiment: Cytotoxicity (cellular ATP, CellTiter-Glo) in 2D plated primary human hepatocytes, 48 h treatment; assay type: cell-based; settings: Hepatocyte; 2D primary human hepatocytes (lot IZT), 48 h treatment, total cellular ATP content; read-out: Geomean IC50;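 also: 384-well plates, luminescence read-out, normalized to vehicle wells with 1% DMSO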
Experimental: Cryopreserved PHH (lot IZT) were thawed in InVitroGro HT™ thawing media at 37 °C, pelleted, and resuspended. Viable hepatocytes were counted by Trypan blue exclusion and plated in black-walled, BioCoat™ collagen 384-well plates at 13,000 cells/well in InVitroGro CP™ plating media supplemented with 1% Torpedo™ Antibiotic Mix and 5% fetal bovine serum and incubated overnight for 18 h. Cells were then treated with compounds for 48 h diluted in InVitroGro HI™ incubation media containing 1% Torpedo Antibiotic Mix, 10% fetal bovine serum, and 1% DMSO. […] Luminescence was determined on an EnVision™ Muliplate Reader (PerkinElmer, Waltham, MA, USA), and data were normalized to vehicle (1% DMSO) control wells.

[2] = system: 3D human liver microtissues (hLiMT); experiment: Cytotoxicity (cellular ATP, CellTiter-Glo 2.0) in 3D human liver microtissues, 14 day repeat-dose treatment; settings: for IC50 / pIC50: Homo sapiens, 336 h; for IC50: Hepatocyte, read-out: Geomean IC50 [µM]
[3] = cited from earlier work; for P/N (DILI positive / DILI negative): P = DILI severity categories 1, 2 and 3, N = categories 4 and 5; for DILI category: clinical, from literature and product labels
[4] = cited from earlier work
[5] = system: BSEP transporter; set-up: method as in Kenna et al. [2015]; settings: ref Kenna et al. [2015]; cited from earlier work
[6] = Clinical DILI severity categorization and DILI pattern; settings: P = DILI severity categories 1, 2 and 3; N = categories 4 and 5
[7] = ref Chen et al 2016 / Chen et al 2011; cited from earlier work
[8] = system: 3D human liver microtissues (hLiMT); experiment: Cytotoxicity (cellular ATP) in 3D human liver microtissues, 5-6 days treatment; assay type: cell-based; settings: Homo sapiens; hLiMT, 5/6 days, ATP content; read-out: IC50 SHORT;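 also: Hanging-drop spheroids, seven-point dilution series, re-dosed on day 3, CellTiter-Glo 2.0 luminescence, normalized to 0.5 or 1% DMSO vehicle controls on the same plate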
[9] = set-up: method as in Russmann et al. [2005]; settings: patients; ref Russmann et al. [2005]; cited from earlier work
[10] = system: 3D human liver microtissues (hLiMT); experiment: miR-122 levels in hLiMT supernatant (qRT-PCR); assay type: cell-based; settings: 5 days exposure
Experimental: miRNA extraction miRNA was extracted using a miRNeasy kit, following the manufacturer's instructions, and as described by Starkey et al. 2016 with minor modifications. Thirty-eight µL thawed hLiMT supernatant was mixed with 162 µL nuclease-free water and 700 µL QIAzol reagent and then incubated for 5 min at room temperature. Chloroform (100 µL) was added, the samples shaken vigorously for 15 sec and then centrifuged at 12,000 g for 15 min at 4 °C. The supernatant was then mixed with 500 µL 70% ethanol and transferred to a miRNeasy minispin column. The column was centrifuged at >8000 g for 15 sec. The elute was then purified using a MinElute kit
miRNA purification The small RNA elution mixture was applied to the MinElute column 700 µL at a time. […]
qRT-PCR One µl thawed cDNA was mixed with 19 µl miR-122 or cel-lin4 PCR reaction master mix containing 1 µL Taqman^TM miR-122 or cel-lin4 primer small RNA assay (20X), 10 µl Taqman^TM universal PCR master mix II (2X) and 8 µL nuclease free water. Levels of miRNA were measured by the fluorescent signal produced from the Taqman probes on an ABI Prism 7000 (Applied Biosystems). miRNA levels were normalized to levels of cel-lin4 miRNA. Relative miRNA production was determined with the ΔCt method and reported as 2−ΔCt, where Ct is the threshold cycle. Differences in miRNA concentration were expressed as fold changes relative to control.

[11] = system: 3D human liver microtissues (hLiMT); experiment: HMGB1 levels in hLiMT supernatant (ELISA); assay type: cell-based; settings: 5 days exposure
Experimental: Supernatants from single hLiMT (in triplicates) were analysed for HMGB1 content using IBLs ELISA assay using the high sensitive range test procedure. Briefly, 50 μL of the thawed cell-culture supernatants from single microtissues or diluted standards were incubated in the microtiter plate along with 50 μL of the diluent buffer for 20-24 h at 37 °C in the dark. The plate was then washed 5 times with 400 µL diluted wash buffer (1:5), blotted dry and 100 µL enzyme conjugate added. After incubation in the dark for 2 h at 25 °C the plate was washed 5 times with 400 µL diluted wash buffer, blotted dry and then 100 µL colour solution added. The plate was incubated for a further 30 min at room temperature prior to the addition of 100 µL stop solution. The absorbance was then determined at 450 nm using an EnVision® plate reader (PerkinElmer, Waltham, MA, USA) within 60 min. The concentration of HMGB1 in the samples was read off the high sensitivity range standard curve obtained from plotting the OD of the standards against the concentration (ng/L).

[12] = system: 3D human liver microtissues (hLiMT); experiment: alpha-GST release into hLiMT supernatant (ELISA); assay type: cell-based; settings: 336 h, 14 days, release into medium, read-out: IC50 (α-GST assay)
Experimental: Supernatants from single hLiMT (in triplicates) were analysed for α-GST content using EKF’s α-GST ELISA assay. Briefly, 50 μL of the thawed cell-culture supernatants from single microtissues was transferred into a new v-bottom plate and diluted with 60 μl sample diluent buffer. From this dilution, 100 μL were transferred to the microassay strips. The ELISA was otherwise performed according to the manufacturer’s instructions.

[13] = system: 3D human liver microtissues (hLiMT)
[14] = Table 1, ref Garside et al. (2014)
[15] = clinical DILI severity category, 1-5
[16] = human Cmax total, used for IC50/Cmax
[17] = human total plasma Cmax, ref literature values
[18] = table S-4, ref Garside et al. 2014

Compound | pIC50 [1] | IC50 [2] [µM] | P/N (DILI positive / DILI negative) [3] | DILI severity category [3, 14] | DILI severity category [3, 15] | DILI category ([3]; ref Garside et al. 2014) | Cmax [4, 16] [nM] | Cmax [4, 17] [nM] | P/N (DILI positive / DILI negative) [6] | FDA DILI Classification DILI severity score [7] | LTKB DILI classification [7] | pIC50 [8] | DILI severity category [3, 18] | further results
COC(c1ccccc1)(c1ccccc1)[C@H](Oc1nc(C)cc(C)n1)C(=O)O [Ambrisentan] | < 4.00 | > 100 | N | 5: No DILI (N = 25) | 5. No DILI | 5. No DILI | 790 | 790 | N | 7 | Ambiguous DILI concern | – | – | cytotoxicity ([2]; hLiMT 14 days, in words): did not detect cytotoxicity; also recorded: not cytotoxic; fold lower potency to inhibit BSEP transporter function than bosentan [5]: 10 fold; fold lower potency to inhibit BSEP transporter function than sitax(s)entan [5]: 30 fold
CC(C)c1nc(N(C)S(C)(=O)=O)nc(-c2ccc(F)cc2)c1/C=C/[C@@H](O)C[C@@H](O)CC(=O)O [Rosuvastatin] | < 4.00 | 7.8 | – | 3: Low clinical DILI concern (N = 23) | 3. Low Clinical DILI Concern | 3. Low Clinical DILI Concern | 10 | 10 | – | 3 | less DILI concern | 4.47 | 3 | mild, transient elevations of plasma enzyme levels [9]: 1–3%
CN(C)CCCN1c2ccccc2Sc2ccc(Cl)cc21 [Chlorpromazine] | 4.72 | ~7.4 | – | 3: Low clinical DILI concern (N = 23) | 3. Low Clinical DILI Concern | 3. Low Clinical DILI Concern | 940 | 940 | – | 2 | less DILI concern | 4.96 | 3 | release of miR-122 [10]: dose-dependent release; pIC50 ([2]; read-out: IC50 (ATP-assay)): 5.15; pIC50 ([2]; read-out: IC50 LONG): 5.15; DILI severity category ([3]; table S-5, ref Garside et al. 2014): 3. Low Clinical DILI Concern; release of HMGB1 [11]: dose-dependent release; pIC50 [12]: 4.34
Nc1nc(F)nc2c1ncn2[C@@H]1O[C@H](CO)[C@@H](O)[C@@H]1O [Fludarabine] | < 4.30 | 6.8 | N | 4: Enzyme elevations in clinic (N = 16) | 4. Enzyme Elevations in Clinic | 4. Enzyme Elevations in Clinic | 170 | 170 | N | 0 | no DILI concern | – | – | Geomean IC50/cmax [13]: 39.9
